Results from patent publication US11440903B2, “Salt form and crystal form of compound as FGFR4 inhibitor and preparation method thereof” (GUANGDONG ZHONGSHENG PHARMACEUTICAL CO., LTD, priority 2017, dated 2022).

Experiment: Solid stability test of the crystal forms (influence factors and acceleration tests; appearance, XRPD, HPLC content and impurities)
Type: physicochemical
Conditions: for photostability (stability under light radiation), conclusion in words / stability in dark, conclusion in words / stability under acceleration conditions, conclusion in words / thermal stability (high temperature), conclusion in words: conclusion of influence factors and acceleration tests
From the text: A sample of the crystal form A was placed on the bottom of a glass sample bottle, and spread to a thin layer. The sample stored under high temperature, high humidity, and acceleration conditions was placed in a bottle of which the mouth was packed with a pierced aluminum foil to ensure the sample to be sufficiently exposed to ambient air; the sample stored under light radiation conditions was placed at room temperature in a standing bottle of which the mouth was open, the sample was exposed to a light resource, and sampled for detection after being radiated by sufficient energy. Samples were taken and analyzed at various time points, and the test results were compared with the initial test results of 0 day, the inspection items included appearance, content and impurities, and the test results are shown in Table 9.
A sample of the crystal form B (10 mg) was placed on the bottom of a glass sample bottle, and spread to a thin layer. The sample stored under high temperature, high humidity, and acceleration conditions were placed in a bottle of which the mouth was packed with a pierced aluminum foil to ensure the sample to be sufficiently exposed to ambient air; the sample stored under light radiation conditions was placed at room temperature in a standing bottle of which the mouth was open, the sample was exposed to a light resource, and sampled for detection after being radiated by sufficient energy, the control sample stored in dark (open, the whole sample bottle was sealed with aluminum foil to keep the content in dark) and the sample stored under light radiation conditions were placed together to exclude environmental influence on the samples. Samples were taken and analyzed at various time points, and the test results were compared with the initial test results of 0 day, the inspection items included appearance, crystal form, content and impurities, the test results are shown in Table 10.
(§1) A sample of the crystal form C was taken and placed on the bottom of a glass sample bottle, and spread to a thin layer. The sample stored under high temperature, high humidity, and acceleration conditions was placed in a bottle of which the mouth was packed with a pierced aluminum foil to ensure the sample to be sufficiently exposed to ambient air; the sample stored under light radiation conditions was placed at room temperature in a standing bottle of which the mouth was open, the sample was exposed to a light resource, and sampled for detection after being radiated by sufficient energy. Samples were taken and analyzed at various time points, and the test results were compared with the initial test results of 0 day.
as §1, with “D” for “C”
A sample of the crystal form E (10 mg) was taken and placed on the bottom of a glass sample bottle, and spread to a thin layer. […]

[1] = Acceleration test (40° C./relative humidity of 75%, open), 1 month
[2] = Acceleration test (40° C./relative humidity of 75%, open), 2 months
[3] = Acceleration test (40° C./relative humidity of 75%, open), 3 months
[4] = Acceleration test (40° C./relative humidity of 75%, open), 10 days
[5] = Acceleration test (60° C./relative humidity of 75%, open), 1 month
[6] = Acceleration test (60° C./relative humidity of 75%, open), 2 months
[7] = Acceleration test (60° C./relative humidity of 75%, open), 3 months
[8] = Acceleration test (60° C./relative humidity of 75%, open), 10 days
[9] = High humidity (room temperature/relative humidity of 92.5%, open), 5 days
[10] = High humidity (room temperature/relative humidity of 92.5%, open), 10 days
[11] = High temperature (60° C., open), 5 days
[12] = High temperature (60° C., open), 10 days
[13] = Light radiation (total illumination: 1.2 × 10^6 Lux·hr/near ultraviolet: 200 w·hr/m^2, open), light radiation sample
[14] = Light radiation test, control sample in dark

In the case of C=CC(=O)N[C@H]1COC[C@H]1Nc1ncc(/C=C(\F)c2c(Cl)c(OC)cc(OC)c2Cl)cn1 [Crystal Form B], the Appearance (0 day (initial)) is reported as “Off-white”, the “Content (%)” value (0 day (initial)) is reported as 99.21% and the “Crystal Form (XRPD)” value (0 day (initial)) is reported as “form B”. The “Total Impurities (%)” value (0 day (initial)) was 0.41%, the Appearance [1] was “Off-white” and the “Content (%)” value [1] was 99.49%. The “Crystal Form (XRPD)” value [1] was “form B”, the “Total Impurities (%)” value [1] was 0.43% and the Appearance [2] was “Off-white”. The “Crystal Form (XRPD)” value [2] was “form B”, the Appearance [3] was “Off-white” and the “Content (%)” value [3] was 96.23%. For the same molecule, the “Crystal Form (XRPD)” value [3] was “form B”, the “Total Impurities (%)” value [3] was 0.31% and the Appearance [4] was “Off-white”. For the same molecule, the “Content (%)” value [4] was 101.21%, the “Crystal Form (XRPD)” value [4] was “form B” and the “Total Impurities (%)” value [4] was 0.43%. The Appearance [5] was “Off-white”, the “Content (%)” value [5] was 98.68% and the “Crystal Form (XRPD)” value [5] was “form B”. For the same molecule, the “Total Impurities (%)” value [5] was 0.42%, the Appearance [6] was “Off-white” and the “Crystal Form (XRPD)” value [6] was “form B”. The Appearance [7] was “Off-white”, the “Content (%)” value [7] was 96.71% and the “Crystal Form (XRPD)” value [7] was “form B”. The “Total Impurities (%)” value [7] was 0.31%, the Appearance [8] was “Off-white” and the “Content (%)” value [8] was 100.91%. The “Crystal Form (XRPD)” value [8] was “form B”, the “Total Impurities (%)” value [8] was 0.42% and the Appearance [9] was “Off-white”. For the same molecule, the “Crystal Form (XRPD)” value [9] was “form B”, the Appearance [10] was “Off-white” and the “Content (%)” value [10] was 101.03%. For the same molecule, the “Crystal Form (XRPD)” value [10] was “form B”, the “Total Impurities (%)” value [10] was 0.42% and the Appearance [11] was “Off-white”. The “Crystal Form (XRPD)” value [11] was “form B”, the Appearance [12] was “Off-white” and the “Content (%)” value [12] was 100.74%. The “Crystal Form (XRPD)” value [12] was “form B”, the “Total Impurities (%)” value [12] was 0.42% and the Appearance [13] was “Off-white”. For the same molecule, the “Content (%)” value [13] was 92.90%, the “Crystal Form (XRPD)” value [13] was “form B” and the “Total Impurities (%)” value [13] was 2.21%. For the same molecule, the Appearance [14] was “Off-white”, the “Content (%)” value [14] was 100.23% and the “Crystal Form (XRPD)” value [14] was “form B”. For the same molecule, the “Total Impurities (%)” value [14] was 0.42%, the “photostability (stability under light radiation), conclusion in words” value was “slight impurity generation” and the “stability in dark, conclusion in words” value was “good stability”. The “stability under acceleration conditions, conclusion in words” value was “superior” and the “thermal stability (high temperature), conclusion in words” value was “superior”.
With C=CC(=O)N[C@H]1COC[C@H]1Nc1ncc(/C=C(\F)c2c(Cl)c(OC)cc(OC)c2Cl)cn1.CS(=O)(=O)O [Crystal Form E] the Appearance (0 day (initial)) was “White”, the “Content (%)” value (0 day (initial)) was 101.51% and the “Crystal Form (XRPD)” value (0 day (initial)) was “form E”. For the same molecule, the “Total Impurities (%)” value (0 day (initial)) was 0.44%, the Appearance [1] was “White” and the “Content (%)” value [1] was 102.95%. For the same molecule, the “Crystal Form (XRPD)” value [1] was “form E”, the “Total Impurities (%)” value [1] was 0.33% and the Appearance [4] was “White”. The “Content (%)” value [4] was 99.58%, the “Crystal Form (XRPD)” value [4] was “form E” and the “Total Impurities (%)” value [4] was 0.35%. The Appearance [5] was “White”, the “Content (%)” value [5] was 102.48% and the “Crystal Form (XRPD)” value [5] was “form E”. The “Total Impurities (%)” value [5] was 0.40%, the Appearance [8] was “White” and the “Content (%)” value [8] was 100.38%. The “Crystal Form (XRPD)” value [8] was “form E”, the “Total Impurities (%)” value [8] was 0.37% and the Appearance [9] was “White”. The “Crystal Form (XRPD)” value [9] was “form E”, the Appearance [10] was “White” and the “Content (%)” value [10] was 101.24%. For the same molecule, the “Crystal Form (XRPD)” value [10] was “form E”, the “Total Impurities (%)” value [10] was 0.34% and the Appearance [11] was “White”. The “Crystal Form (XRPD)” value [11] was “form E”, the Appearance [12] was “White” and the “Content (%)” value [12] was 100.37%. The “Crystal Form (XRPD)” value [12] was “form E”, the “Total Impurities (%)” value [12] was 0.50% and the Appearance [13] was “White”. For the same molecule, the “Content (%)” value [13] was 98.70%, the “Crystal Form (XRPD)” value [13] was “form E” and the “Total Impurities (%)” value [13] was 0.49%. For the same molecule, the Appearance [14] was “White”, the “Content (%)” value [14] was 100.87% and the “Crystal Form (XRPD)” value [14] was “form E”. For the same molecule, the “Total Impurities (%)” value [14] was 0.37%, the “photostability (stability under light radiation), conclusion in words” value was “slight impurity generation” and the “stability in dark, conclusion in words” value was “good stability”. The “stability under acceleration conditions, conclusion in words” value was “superior” and the “thermal stability (high temperature), conclusion in words” value was “superior”.
